Viability data for 60 compounds are collected here from PMC12040169 (PLOS Biology, 2025).

Molecules are shown by their SMILES.

A short description of the data set: in vitro. To be noted: human, hela cells, % viability.
By viability is commonly meant a read-out of living cells in per cent, often relative to untreated cells. On to `CCS(=O)(=O)Nc1ccc(C(=O)N2CCN(c3ccccc3)CC2)cc1` [CBK304345], for which the viability at 28.5 h, 10 µM was found to be 112%.

Take `Cc1cccn2cc(CNC(=O)C(C)(C)C)nc12` [CBK304348]: the viability at 28.5 h, 10 µM stood at 83.9%. The result for `Cc1ccc(C(C)NC(=O)C2CCCN(S(C)(=O)=O)C2)c(C)c1` (stereo not drawn) [CBK304349] reads 94.1%; that for `CSCCC(NC(=O)CCc1ccccc1)c1nnc2ccccn12` (stereo not drawn) [CBK304350], 95.4%.

With `CC(C)Nc1ccc(C(=O)N2CCC(N3CCOCC3)CC2)cn1` [CBK304353], the viability at 28.5 h, 10 µM came out at 105%. The result for `Cc1cc(C(=O)N2CCC(c3nccn3C)CC2)ccc1F` [CBK304355] reads 89.7%; that for `Cc1nn(CC(=O)N(C)Cc2cnccn2)c(=O)c2ccccc12` [CBK304356], 97.6%. The result for `Cc1ccc(C)c(NC(=O)CCc2c(C)nn3cnnc3c2C)c1` [CBK304358] reads 90%; that for `COCC1(C(=O)N2CCN(c3ccccc3C#N)CC2)CCC1` [CBK304361], 93%. The figure for `CC(C)n1ccc2cc(C(=O)NC3CCOC(C)(C)C3)ccc21` (stereo not drawn) [CBK304366] is 90.6%. `COc1ccnc(N2CCN(C(=O)c3ccncc3Cl)CC2)n1` [CBK304367]: the viability at 28.5 h, 10 µM was determined as 102%. The figure for `COCCN(CC1CC1)C(=O)NCc1cccc(Cl)c1` [CBK304368] is 93.4%. The result for `O=C1CN(C(=O)c2cc(-c3ccncc3)nc3ccccc23)CCN1` [CBK304370] reads 104%. `CCCOC(=O)Cn1cnc2sc(C)c(C)c2c1=O` [CBK304371]: the viability at 28.5 h, 10 µM amounted to 88.9%. For the compound `COc1ccc(C(=O)N2CCN(c3ncnc4onc(C)c34)CC2)cc1` [CBK304372], the viability at 28.5 h, 10 µM amounted to 93.5%. Consider `OCC1COCCN(c2ncnc3c2CCC3)C1` (stereo not drawn) [CBK304373], for which the viability at 28.5 h, 10 µM is 103%. As for `Cc1ccc2cc(C(=O)N3CCCCC3CN3CCOCC3)[nH]c2c1` (stereo not drawn) [CBK304374], the viability at 28.5 h, 10 µM amounted to 90.4%. The figure for `O=C(c1cc(S(=O)(=O)N2CCOCC2)ccc1Cl)N1CCCCC1` [CBK304377] is 94.1%; for `COc1ccnc(Cn2ncc(N3CCCC3)cc2=O)c1` [CBK304379] it is 87.5%. As for `O=C(NCCn1cccn1)N1CCC(Cc2ccc(F)cc2)CC1` [CBK304381], the viability at 28.5 h, 10 µM is 91.7%.

In the case of `CCn1c(C)nnc1SCC(=O)Nc1cc(C(F)(F)F)ccc1Cl` [CBK304382], the viability at 28.5 h, 10 µM is 91.7%. The figure for `COCCN1CC(CNC(=O)c2cccc(F)c2O)CC1=O` (stereo not drawn) [CBK304386] is 107%. The result for `O=C(NCC(c1ccco1)N1CCCC1)N1CCc2ccccc2C1` (stereo not drawn) [CBK304392] reads 98.8%. For `Cn1cc(NC(=O)C2CCCN(c3ncccn3)C2)cn1` (stereo not drawn) [CBK304394], the viability at 28.5 h, 10 µM was found to be 108%. The figure for `CC(=O)c1cccc(NC(=O)Cn2ncc(N3CCCC3)c(Cl)c2=O)c1` [CBK304395] is 89.5%. Take `Cc1cnn(C)c1CN1CCC(C(N)=O)(N2CCCCC2)CC1` [CBK304400]: the viability at 28.5 h, 10 µM amounted to 89.4%. The result for `CNC(=O)c1cc(NC(=O)NCC2CC(=O)N(CCOC)C2)ccc1F` (stereo not drawn) [CBK304403] reads 107%; that for `CCOC(=O)C1CCCN(c2c(C#N)cnc3ccc(Cl)cc23)C1` (stereo not drawn) [CBK304405], 85.8%. The figure for `Cc1cc(C)n2nc(CC(=O)N3CCCC3c3ccccn3)nc2n1` (stereo not drawn) [CBK304408] is 90.8%. The result for `CCC(CC)C(=O)N1CCn2c(nnc2-c2cncc(Br)c2)C1` [CBK304409] reads 96.1%; that for `CC(=O)N1CCc2c(sc(NC(=O)c3ccc(C)cc3)c2C#N)C1` [CBK304411], 52.6%. As to `CCOC(=O)C1CCCN(Cc2ccc(OC)cc2)C1` (stereo not drawn) [CBK304413], the viability at 28.5 h, 10 µM was found to be 88.3%.

`Cc1cc(C)n(CCCC(=O)NCCc2cn3ccccc3n2)n1` [CBK304414]: the viability at 28.5 h, 10 µM stood at 94.6%. The figure for `N#Cc1cccnc1N1CC(C(=O)O)C2(CCC2)C1` (stereo not drawn) [CBK304415] is 93.7%; for `CSCCC(NC(=O)NCCc1ccccc1)c1nnc2ccccn12` (stereo not drawn) [CBK304417] it is 102%; for `CCNC(=O)N1CCC(NS(=O)(=O)c2cnc3ccccc3c2)C1` (stereo not drawn) [CBK304419] it is 85.3%. The result for `Cc1c(C(=O)N2CCCCC2C(N)=O)nnn1Cc1ccc(F)cc1F` (stereo not drawn) [CBK304425] reads 93.7%; that for `Cc1csc2c(N3CCCC3CC(=O)c3cnn(C)c3)ncnc12` (stereo not drawn) [CBK304429], 81.8%. `CCOc1cc(NC2CCN(C(=O)C(C)(C)C3CCCC3)CC2)ncn1` [CBK304430]: the viability at 28.5 h, 10 µM is 91.2%.

As for `Cc1ccc(Cc2cnc(NC(=O)NC3CCOCC3)s2)cc1Cl` [CBK304440], the viability at 28.5 h, 10 µM is 82.2%. `CC1CCc2c(C(=O)N3CC(C)OC(C)C3)csc2C1` (stereo not drawn) [CBK304442]: the viability at 28.5 h, 10 µM is 106%.

`CC(C)c1csc(CNC(=O)NC2CCCN(c3ccn(C)n3)C2=O)n1` (stereo not drawn) [CBK304447]: the viability at 28.5 h, 10 µM worked out at 83.6%. The result for `Cc1cc(C)n(CCN2CCC(N(C)Cc3nnc(C)n3C)C2)n1` (stereo not drawn) [CBK304449] reads 94.3%; that for `Cc1nnc(CN(C)C2CCN(Cc3ccc4c(c3)CCC4)C2)n1C` (stereo not drawn) [CBK304450], 104%. The result for `Cc1nc(-c2cc3c(s2)CCN(CC(O)Cn2cccn2)C3)cs1` (stereo not drawn) [CBK304458] reads 102%. As to `COc1csc(C(=O)Nc2ncn(CC(=O)N3CCCCCC3)n2)c1` [CBK304463], the viability at 28.5 h, 10 µM was 84.6%.

Consider `CCCn1c(C)nnc1CN(CC1CCCO1)C1CCCC1` (stereo not drawn) [CBK304465], for which the viability at 28.5 h, 10 µM is 94.8%. The result for `Cc1cc(NC(=O)C(C)N(C)CCOc2ccccc2Cl)no1` (stereo not drawn) [CBK304466] reads 107%; that for `CC(=O)c1cccc(NC(=O)N(Cc2ccco2)CC2CCCO2)c1` (stereo not drawn) [CBK304467], 104%; that for `CN(CC(=O)NCc1ccco1)C1CCCCC1` [CBK304471], 85.6%. The figure for `CCc1nnc(CN(CC2CCCO2)C2CCC(C)CC2)n1C` (stereo not drawn) [CBK304475] is 106%; for `CNCC1CCCN(C(=O)c2ccc(Oc3cccnc3)cc2)C1` (stereo not drawn) [CBK304479] it is 83.2%; for `Cc1ccc(CCC(=O)N2CCNCC2C)c(C)c1` (stereo not drawn) [CBK304481] it is 90%. The result for `Cc1c(C(=O)N2CCC(F)(CO)C2)nnn1-c1ccc2ncccc2c1` (stereo not drawn) [CBK304483] reads 101%.

Turning to `Cc1c(C(=O)N(C)Cc2csc(Br)c2)nnn1C1CCNCC1` [CBK304491], the viability at 28.5 h, 10 µM came to 104%. Regarding `COc1ccc(C)cc1C1(CNC(=O)C2CC2C(=O)O)CCOCC1` (stereo not drawn) [CBK304492], the viability at 28.5 h, 10 µM amounted to 82%. Regarding `Cn1ccc(CN2CCOC(c3nc(C(C)(C)C)n[nH]3)C2)cc1=O` (stereo not drawn) [CBK304495], the viability at 28.5 h, 10 µM was found to be 84.5%. The result for `CC(C)Oc1ccc(C(=O)N2CC(C)C(N3CCOCC3)C2)cn1` (stereo not drawn) [CBK304497] reads 110%; that for `CCc1nsc(N2CCC(Oc3cccnc3N(C)C)C2)n1` (stereo not drawn) [CBK304498], 110%; that for `Cc1cc(S(=O)(=O)NC(=O)CC2CCOc3ccccc32)c(C)o1` (stereo not drawn) [CBK304499], 105%.
